Test [1] deals with T1, Aurora kinase A (Homo sapiens, UniProt O14965).
T1 construct: gene AURKA
Kind of test: KdELECT competition binding (DiscoverX), 11-point; nanoDSF thermal shift.

Test [2] deals with MAST1 (Homo sapiens, UniProt Q9Y2H9). Kind of test: biochemical. The settings on record: read-out: APA (POC). Also on record: scanMAX competition binding; kinase recovered on immobilized ligand quantified by qPCR, per cent of control. As for the experimental part: (§1) The binding affinities of APA and NAPA were evaluated in the scanMAX^sm Kinase Assay Panel (DiscoverX) at a final concentration of 10 µM. The compounds were tested for steric or allosteric binding to kinases in solution. The kinase was captured from the solution through an immobilized kinase-specific ligand and the kinase recovery was quantified. The amount of recovered kinase in the presence or absence of APA or NAPA was measured by quantitative PCR compared with the kinase capture in absence of the compound. Any compound reducing the binding affinity of a kinase to the respective immobilized ligand was scored as a potential hit, and the binding affinity of the compound toward a kinase is interpreted as the difference between the kinase recovery in the absence and presence of the compound. The inhibitory binding constants (Kd) of APA and NAPA to AURKA were evaluated in a KdELECT Kinase Assay (DiscoverX). […] Data acquisition followed the same methodology as for the scanMAX^sm Kinase Assay Panel. 6 Supplementary Figure 4. Kinome inhibition profiles of APA and its NAT2 metabolite NAPA identifies preferential APA kinase targets and differential binding to AURKA a The human kinome was assessed for binding affinity to APA and NAPA at 10 µM concentration (468 kinases in the scanMAX Kinase Assay Panel, DiscoverX). The family stratification of kinases is shown as a cladogram. Circles visualize the binding affinity of NAPA and APA towards each kinase with a higher intensity of blue corresponding to a higher binding affinity. […] One single data point from one experiment at a concentration 18.5 µM of APA was excluded as an outlier. c Thermal shift assay for human recombinant AURKA in the presence of APA and the selective inhibitor S1451. Melting temperatures were obtained by calculating the first derivative of the tryptophan fluorescence ratio at 350 nm and 330 nm and are shown for AURKA in the presence of S1451 (blue) and APA (yellow). Structural similarities between APA and kinase inhibitors[27] prompted investigation of protein kinases as mediators of APA toxicity. […] To enrich for kinase interactions that could explain the preferential killing of slow NAT2 cells, we compared the binding affinity of each kinase with APA and NAPA, selected 44 targets with preferential binding to APA and excluded kinases non-essential for cell survival and those not expressed in CRC cells (Supplementary Fig. 4A, Supplementary Table 4). […] The growth inhibition of RKO and DLD-1 following siRNA-mediated AURKA knockdown (Figs. 3c, d) reflected the relative efficiency of protein downregulation (Supplementary Fig. 5C, D). […] (Supplementary Fig. 4C). AURKA regulates cell cycle progression through association with other centrosome and spindle-associated proteins. Its activation requires auto-phosphorylation at Thr288 and ensures spindle pole integrity, centrosome duplication as well as adequate chromosomal alignment and segregation, while its inhibition leads to multipolar spindles with acentrosomal poles[28],[31]. […] S1451 reduced the fraction of pAURKA levels by >90% regardless of NAT2 expression (Fig. 3f and Su

The target in test [3] is FLT1 (Homo sapiens, UniProt P17948). Nature of the test: biochemical. Also on record: scanMAX competition binding; kinase recovered on immobilized ligand quantified by qPCR, per cent of control. The settings on record: read-out: APA (POC). The method, then:
as §1

The target of test [4] is T2, GSG2 (Homo sapiens, UniProt Q8TF76).
T2 construct: gene HASPIN
Kind of test: biochemical. Details: scanMAX competition binding; kinase recovered on immobilized ligand quantified by qPCR, per cent of control. The note with it: read-out: APA (POC). As for the experimental part: as §1

For test [5], the target named is RET (Homo sapiens, UniProt P07949). Kind of test: biochemical. Also on record: scanMAX competition binding; kinase recovered on immobilized ligand quantified by qPCR, per cent of control. The settings on record: read-out: APA (POC). As for the experimental part:
as §1

In test [6] the target is EIF2AK4 (Homo sapiens, UniProt Q9P2K8). Kind of test: biochemical. Also on record: scanMAX competition binding; kinase recovered on immobilized ligand quantified by qPCR, per cent of control. The settings on record: read-out: APA (POC). The method, then:
as §1

For test [7], the target named is DYRK1A (Homo sapiens, UniProt Q13627). Kind of test: biochemical. Also on record: scanMAX competition binding; kinase recovered on immobilized ligand quantified by qPCR, per cent of control. The note with it: read-out: APA (POC). As for the experimental part: as §1
Test [8] concerns the target AURKA (Homo sapiens, UniProt O14965). Nature of the test: biochemical. Details: scanMAX competition binding; kinase recovered on immobilized ligand quantified by qPCR, per cent of control. The settings on record: read-out: APA (POC). As for the experimental part:
as §1

The target in test [9] is PIP5K1A (Homo sapiens, UniProt Q99755). Kind of test: biochemical. Details: scanMAX competition binding; kinase recovered on immobilized ligand quantified by qPCR, per cent of control. The note with it: read-out: APA (POC). The method, then: as §1
The target of test [10] is NEK10 (Homo sapiens, UniProt Q6ZWH5). Kind of test: biochemical. Also on record: scanMAX competition binding; kinase recovered on immobilized ligand quantified by qPCR, per cent of control. The settings on record: read-out: APA (POC). As for the experimental part: as §1
Test [11] deals with TNIK (Homo sapiens, UniProt Q9UKE5). Kind of test: biochemical. Details: scanMAX competition binding; kinase recovered on immobilized ligand quantified by qPCR, per cent of control. The settings on record: read-out: APA (POC). As for the experimental part: as §1
The target of test [12] is HIPK3 (Homo sapiens, UniProt Q9H422). Nature of the test: biochemical. Also on record: scanMAX competition binding; kinase recovered on immobilized ligand quantified by qPCR, per cent of control. The note with it: read-out: APA (POC). As for the experimental part: as §1
The target of test [13] is MINK1 (Homo sapiens, UniProt Q8N4C8). Nature of the test: biochemical. Details: scanMAX competition binding; kinase recovered on immobilized ligand quantified by qPCR, per cent of control. The note with it: read-out: APA (POC). The method, then:
as §1

Test [14] concerns the target NTRK3 (Homo sapiens, UniProt Q16288). Nature of the test: biochemical. Details: scanMAX competition binding; kinase recovered on immobilized ligand quantified by qPCR, per cent of control. The note with it: read-out: APA (POC). As for the experimental part: as §1
The target of test [15] is GRK4 (Homo sapiens, UniProt P32298). Nature of the test: biochemical. Also on record: scanMAX competition binding; kinase recovered on immobilized ligand quantified by qPCR, per cent of control. The settings on record: read-out: APA (POC). As for the experimental part:
as §1

Test [16] has as its target CAMK2A (Homo sapiens, UniProt Q9UQM7). Nature of the test: biochemical. Also on record: scanMAX competition binding; kinase recovered on immobilized ligand quantified by qPCR, per cent of control. The note with it: read-out: APA (POC). The method, then:
as §1

Kd and remaining binding data for one compound are collected here from article PMC7066191, “Exploiting loss of heterozygosity for allele-selective colorectal cancer chemotherapy” (Nature Communications, 2020).

Sequence of MAST1 (Q9Y2H9 whole entry): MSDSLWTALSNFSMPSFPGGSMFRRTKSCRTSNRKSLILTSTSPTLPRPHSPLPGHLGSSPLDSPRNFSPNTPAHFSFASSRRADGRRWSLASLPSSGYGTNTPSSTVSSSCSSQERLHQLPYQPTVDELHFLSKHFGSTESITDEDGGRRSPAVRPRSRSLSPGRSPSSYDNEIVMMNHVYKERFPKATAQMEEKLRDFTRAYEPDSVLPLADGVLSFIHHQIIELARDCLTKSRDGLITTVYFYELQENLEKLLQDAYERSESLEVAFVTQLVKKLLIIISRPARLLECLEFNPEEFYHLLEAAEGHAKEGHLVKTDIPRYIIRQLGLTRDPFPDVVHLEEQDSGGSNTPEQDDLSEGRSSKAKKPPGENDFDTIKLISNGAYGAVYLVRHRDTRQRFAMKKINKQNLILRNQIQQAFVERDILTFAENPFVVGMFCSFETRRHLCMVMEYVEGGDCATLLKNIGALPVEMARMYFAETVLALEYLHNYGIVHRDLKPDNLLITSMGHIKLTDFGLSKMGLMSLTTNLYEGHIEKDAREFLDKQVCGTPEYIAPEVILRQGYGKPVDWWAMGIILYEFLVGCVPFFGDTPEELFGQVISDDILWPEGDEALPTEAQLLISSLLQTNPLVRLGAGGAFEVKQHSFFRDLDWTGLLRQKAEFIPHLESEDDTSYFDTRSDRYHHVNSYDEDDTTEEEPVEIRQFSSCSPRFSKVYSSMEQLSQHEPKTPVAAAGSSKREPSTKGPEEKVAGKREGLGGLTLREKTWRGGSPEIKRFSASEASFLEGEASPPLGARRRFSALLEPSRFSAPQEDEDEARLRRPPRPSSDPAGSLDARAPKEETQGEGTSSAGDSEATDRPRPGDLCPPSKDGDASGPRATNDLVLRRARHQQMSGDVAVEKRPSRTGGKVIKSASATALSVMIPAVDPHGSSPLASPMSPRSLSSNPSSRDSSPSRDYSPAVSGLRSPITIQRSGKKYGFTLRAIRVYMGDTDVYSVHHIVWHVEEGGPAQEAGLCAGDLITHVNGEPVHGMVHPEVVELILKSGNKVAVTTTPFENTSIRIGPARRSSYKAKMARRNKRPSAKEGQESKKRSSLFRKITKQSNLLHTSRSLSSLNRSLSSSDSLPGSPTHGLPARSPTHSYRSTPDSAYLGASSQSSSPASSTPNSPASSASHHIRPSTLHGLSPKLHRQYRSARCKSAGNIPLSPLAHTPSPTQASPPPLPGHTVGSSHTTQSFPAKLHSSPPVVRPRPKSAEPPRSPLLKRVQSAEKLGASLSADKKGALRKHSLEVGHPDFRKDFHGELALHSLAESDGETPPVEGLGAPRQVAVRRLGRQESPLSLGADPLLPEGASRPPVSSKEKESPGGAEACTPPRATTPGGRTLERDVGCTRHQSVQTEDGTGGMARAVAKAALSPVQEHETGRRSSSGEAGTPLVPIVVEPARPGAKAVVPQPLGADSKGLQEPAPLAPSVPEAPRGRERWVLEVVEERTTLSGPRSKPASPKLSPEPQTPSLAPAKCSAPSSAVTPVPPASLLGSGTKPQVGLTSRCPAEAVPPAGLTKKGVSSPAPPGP
Sequence of GRK4 (P32298 whole entry): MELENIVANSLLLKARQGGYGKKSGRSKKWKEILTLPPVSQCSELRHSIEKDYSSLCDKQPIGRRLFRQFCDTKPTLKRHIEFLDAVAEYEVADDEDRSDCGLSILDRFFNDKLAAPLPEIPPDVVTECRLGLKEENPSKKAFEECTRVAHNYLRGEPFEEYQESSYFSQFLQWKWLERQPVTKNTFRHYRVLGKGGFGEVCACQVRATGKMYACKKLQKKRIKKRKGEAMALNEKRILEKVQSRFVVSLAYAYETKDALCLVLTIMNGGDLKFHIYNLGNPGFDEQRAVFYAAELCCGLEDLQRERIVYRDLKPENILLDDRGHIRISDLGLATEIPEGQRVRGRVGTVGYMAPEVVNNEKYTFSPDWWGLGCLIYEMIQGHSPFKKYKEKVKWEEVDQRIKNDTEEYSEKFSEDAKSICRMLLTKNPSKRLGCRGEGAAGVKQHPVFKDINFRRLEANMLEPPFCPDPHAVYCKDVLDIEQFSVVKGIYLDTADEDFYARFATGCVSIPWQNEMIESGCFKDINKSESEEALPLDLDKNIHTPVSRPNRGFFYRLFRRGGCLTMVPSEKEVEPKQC
Sequence of HIPK3 (Q9H422 whole entry): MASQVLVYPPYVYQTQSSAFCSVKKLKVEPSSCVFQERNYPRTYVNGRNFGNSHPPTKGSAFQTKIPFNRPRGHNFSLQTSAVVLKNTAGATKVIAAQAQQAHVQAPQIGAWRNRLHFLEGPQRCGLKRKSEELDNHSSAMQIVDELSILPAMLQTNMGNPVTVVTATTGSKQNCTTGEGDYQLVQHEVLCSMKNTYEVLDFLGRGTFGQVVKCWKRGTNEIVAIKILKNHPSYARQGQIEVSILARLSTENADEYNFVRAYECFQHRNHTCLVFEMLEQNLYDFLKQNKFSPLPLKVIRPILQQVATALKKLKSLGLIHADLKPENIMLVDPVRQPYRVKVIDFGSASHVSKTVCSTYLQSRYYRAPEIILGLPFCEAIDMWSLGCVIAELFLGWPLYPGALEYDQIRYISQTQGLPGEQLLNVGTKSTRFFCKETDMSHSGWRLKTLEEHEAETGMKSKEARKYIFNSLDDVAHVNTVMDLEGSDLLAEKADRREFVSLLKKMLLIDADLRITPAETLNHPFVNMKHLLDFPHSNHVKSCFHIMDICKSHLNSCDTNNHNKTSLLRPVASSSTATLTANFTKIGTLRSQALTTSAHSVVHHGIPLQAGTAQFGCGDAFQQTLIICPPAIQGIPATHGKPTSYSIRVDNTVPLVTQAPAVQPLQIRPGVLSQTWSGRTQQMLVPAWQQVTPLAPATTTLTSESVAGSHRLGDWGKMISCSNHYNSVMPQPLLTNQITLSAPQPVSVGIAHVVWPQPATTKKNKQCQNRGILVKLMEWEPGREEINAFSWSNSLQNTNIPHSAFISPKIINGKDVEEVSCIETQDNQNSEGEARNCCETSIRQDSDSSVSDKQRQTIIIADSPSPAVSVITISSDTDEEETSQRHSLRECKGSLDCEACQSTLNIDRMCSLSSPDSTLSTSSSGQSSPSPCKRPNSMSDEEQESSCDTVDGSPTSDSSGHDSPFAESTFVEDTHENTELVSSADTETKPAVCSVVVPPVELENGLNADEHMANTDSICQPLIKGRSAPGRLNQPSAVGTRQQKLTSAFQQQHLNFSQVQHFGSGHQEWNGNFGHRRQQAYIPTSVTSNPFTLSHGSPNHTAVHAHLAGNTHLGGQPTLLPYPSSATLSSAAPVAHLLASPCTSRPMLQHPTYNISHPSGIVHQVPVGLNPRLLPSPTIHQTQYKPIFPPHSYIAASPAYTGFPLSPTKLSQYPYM
Sequence of CAMK2A (Q9UQM7 whole entry): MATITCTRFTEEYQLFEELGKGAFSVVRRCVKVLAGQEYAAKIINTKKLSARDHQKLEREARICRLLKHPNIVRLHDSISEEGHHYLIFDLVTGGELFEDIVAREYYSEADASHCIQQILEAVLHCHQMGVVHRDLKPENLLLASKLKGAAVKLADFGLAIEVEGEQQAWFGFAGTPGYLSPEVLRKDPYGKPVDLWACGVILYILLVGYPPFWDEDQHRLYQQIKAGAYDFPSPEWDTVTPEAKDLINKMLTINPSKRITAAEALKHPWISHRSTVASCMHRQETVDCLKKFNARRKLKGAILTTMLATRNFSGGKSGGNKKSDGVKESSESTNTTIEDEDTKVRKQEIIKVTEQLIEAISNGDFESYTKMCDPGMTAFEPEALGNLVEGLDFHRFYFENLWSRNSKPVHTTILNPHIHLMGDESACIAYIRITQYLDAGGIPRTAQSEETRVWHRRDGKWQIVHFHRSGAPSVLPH
Sequence of PIP5K1A (Q99755 whole entry): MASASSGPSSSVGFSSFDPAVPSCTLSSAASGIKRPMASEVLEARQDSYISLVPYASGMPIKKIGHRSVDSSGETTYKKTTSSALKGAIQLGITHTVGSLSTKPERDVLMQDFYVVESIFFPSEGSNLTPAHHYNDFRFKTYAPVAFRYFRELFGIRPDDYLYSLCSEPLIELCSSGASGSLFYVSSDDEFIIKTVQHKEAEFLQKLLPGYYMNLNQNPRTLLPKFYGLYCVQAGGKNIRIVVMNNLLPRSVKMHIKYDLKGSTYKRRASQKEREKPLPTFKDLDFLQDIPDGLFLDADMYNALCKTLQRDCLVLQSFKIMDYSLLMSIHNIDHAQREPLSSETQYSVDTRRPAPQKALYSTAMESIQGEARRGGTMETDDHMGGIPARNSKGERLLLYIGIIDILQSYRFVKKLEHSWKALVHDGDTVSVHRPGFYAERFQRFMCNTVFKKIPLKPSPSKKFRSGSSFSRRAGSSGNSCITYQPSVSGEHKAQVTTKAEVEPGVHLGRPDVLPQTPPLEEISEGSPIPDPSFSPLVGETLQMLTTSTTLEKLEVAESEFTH
Sequence of AURKA (O14965 whole entry): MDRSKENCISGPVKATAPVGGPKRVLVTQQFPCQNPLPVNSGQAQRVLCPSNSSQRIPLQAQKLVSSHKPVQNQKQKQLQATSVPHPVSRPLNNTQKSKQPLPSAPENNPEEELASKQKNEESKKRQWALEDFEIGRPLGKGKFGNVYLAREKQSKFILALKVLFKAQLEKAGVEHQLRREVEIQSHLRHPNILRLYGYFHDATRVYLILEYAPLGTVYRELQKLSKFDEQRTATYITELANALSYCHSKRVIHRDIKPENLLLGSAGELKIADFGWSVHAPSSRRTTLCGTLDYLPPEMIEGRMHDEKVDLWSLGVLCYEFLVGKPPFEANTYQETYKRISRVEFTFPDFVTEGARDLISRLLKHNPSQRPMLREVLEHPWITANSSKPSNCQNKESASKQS
T1 sequence (O14965 whole entry): as above

Consider `COc1cc(Nc2cncc(-c3ccc(N)cc3)n2)cc(OC)c1OC` [APA, 6-(4-aminophenyl)-N-(3,4,5-trimethoxyphenyl)pyrazin-2-amine], for which the Kd in [1] came to 13.5 µM. For the same compound, the remaining binding at 10 µM in test [2] was 46%; in test [3], 36%; in test [4], 6.9%; in test [5] it was 24%; in test [6], 38%; in [7], 7.8%. Also, the remaining binding at 10 µM stood at 53% in [8]; 52% in test [9]; 37% in test [10]; 39% in [11]; 42% in test [12]; 24% in test [13]. The figures for the remaining binding at 10 µM in test [14], in [15] and in test [16] were 11%, 15% and 59%, respectively.
